Data reported in patent US12522602B2, “Derivatives having 2,3-dihydro-1H-indene or 2,3-dihydrobenzofuran moiety or pharmaceutically acceptable salt thereof and pharmaceutical compositions comprising the same” (YUHAN CORPORATION, priority 2019, dated 2026).

test system: GM1 production in Jurkat cells; test: cells; format: cell-based; settings: not given

`CC1(C)Cc2ccc(-c3cccc(OC(F)(F)F)c3)cc2C1NC(=O)O[C@@H]1CN2CCC1CC2` (stereo partly drawn) [Example 80, (S)-quinuclidin-3-yl (2,2-dimethyl-6-(3-(trifluoromethoxy)phenyl)-2,3-dihydro-1H-inden-1-yl)carbamate] showed an IC50 of 4.1 nM.

same assay, conditions: Homo sapiens, Jurkat, 72 h

Going from `COc1ccc(Cl)cc1-c1cc2c(cc1F)C(NC(=O)O[C@@H]1CN3CCC1CC3)C(C)(C)C2` (stereo partly drawn) [Example 364, (S)-quinuclidin-3-yl (5-(5-chloro-2-methoxyphenyl)-6-fluoro-2,2-dimethyl-2,3-dihydro-1H-inden-1-yl)carbamate] to `COc1cc2c(cc1-c1cccc(F)c1)CC(C)(C)C2NC(=O)O[C@@H]1CN2CCC1CC2` (stereo partly drawn) [Example 333, (S)-quinuclidin-3-yl (5-(3-fluorophenyl)-6-methoxy-2,2-dimethyl-2,3-dihydro-1H-inden-1-yl)carbamate], the IC50 rises from 17.2 nM to 45 nM (2.6-fold).

`CCOc1cccc(-c2ccc3c(c2)CC(CC)(CC)C3NC(=O)O[C@@H]2CN3CCC2CC3)c1` (stereo partly drawn) [Example 290, (S)-quinuclidin-3-yl (5-(3-ethoxyphenyl)-2,2-diethyl-2,3-dihydro-1H-inden-1-yl)carbamate] and `CCCCOc1c(C)cc(-c2ccc3c(c2)CC(CC)(CC)C3NC(=O)O[C@@H]2CN3CCC2CC3)cc1C` (stereo partly drawn) [Example 305, (S)-quinuclidin-3-yl (5-(4-butoxy-3,5-dimethylphenyl)-2,2-diethyl-2,3-dihydro-1H-inden-1-yl)carbamate] are within 1.5-fold of each other in IC50: 12.3 nM for the first, 9.8 nM for the second.

`Cc1cc(-c2ccc3c(c2)CC(C)(C)C3NC(=O)O[C@@H]2CN3CCC2CC3)ccc1OC(F)(F)F` (stereo partly drawn) [Example 247, (S)-quinuclidin-3-yl (2,2-dimethyl-5-(3-methyl-4-(trifluoromethoxy)phenyl)-2,3-dihydro-1H-inden-1-yl)carbamate] and `Cc1cc(-c2ccc3c(c2)CC(C)(C)C3NC(=O)O[C@@H]2CN3CCC2CC3)ccc1F` (stereo partly drawn) [Example 255, (S)-quinuclidin-3-yl (5-(4-fluoro-3-methylphenyl)-2,2-dimethyl-2,3-dihydro-1H-inden-1-yl)carbamate] are within 1.5-fold of each other in IC50: 41 nM for the first, 35.8 nM for the second.

Going from `CC1(C)CC(NC(=O)O[C@@H]2CN3CCC2CC3)c2ccc(-c3cccc(OC(F)(F)F)c3)cc21` (stereo partly drawn) [Example 402, (S)-quinuclidin-3-yl (3,3-dimethyl-5-(3-(trifluoromethoxy)phenyl)-2,3-dihydro-1H-inden-1-yl)carbamate] to `CC1(C)Cc2cc(-c3ccc(C(F)(F)F)cc3)ccc2C1NC(=O)O[C@@H]1CN2CCC1CC2` (stereo partly drawn) [Example 75, (S)-quinuclidin-3-yl (2,2-dimethyl-5-(4-(trifluoromethyl)phenyl)-2,3-dihydro-1H-inden-1-yl)carbamate], the IC50 falls from 19.5 nM to 8.3 nM (2.3-fold).

Going from `COc1c(C)cc(-c2ccc3c(c2)CC(C)(C)C3NC(=O)O[C@@H]2CN3CCC2CC3)cc1C` (stereo partly drawn) [Example 195, (S)-quinuclidin-3-yl (5-(4-methoxy-3,5-dimethylphenyl)-2,2-dimethyl-2,3-dihydro-1H-inden-1-yl)carbamate] to `Cc1ccc(-c2ccc3c(c2)CC(C)(C)C3NC(=O)O[C@@H]2CN3CCC2CC3)cc1` (stereo partly drawn) [Example 85, (S)-quinuclidin-3-yl (2,2-dimethyl-5-(p-tolyl)-2,3-dihydro-1H-inden-1-yl)carbamate], the IC50 falls from 36.1 nM to 11.6 nM (3.1-fold). The second is the more potent here.

Going from `COc1cc2c(cc1-c1ccc(C(C)(C)C)cc1)CC(C)(C)C2NC(=O)O[C@@H]1CN2CCC1CC2` (stereo partly drawn) [Example 316, (S)-quinuclidin-3-yl (5-(4-(tert-butyl)phenyl)-6-methoxy-2,2-dimethyl-2,3-dihydro-1H-inden-1-yl)carbamate] to `CCCCOc1ccc(-c2cc3c(cc2OC)C(NC(=O)O[C@@H]2CN4CCC2CC4)C(C)(C)C3)cc1` (stereo partly drawn) [Example 324, (S)-quinuclidin-3-yl (5-(4-butoxyphenyl)-6-methoxy-2,2-dimethyl-2,3-dihydro-1H-inden-1-yl)carbamate], the IC50 falls from 13.3 nM to 5.8 nM (2.3-fold).

`CC1(C)Oc2cc(-c3cccc(Cl)c3)ccc2C1NC(=O)O[C@@H]1CN2CCC1CC2` (stereo partly drawn) [Example 408, (S)-quinuclidin-3-yl (6-(3-chlorophenyl)-2,2-dimethyl-2,3-dihydrobenzofuran-3-yl)carbamate] and `CC1(C)Cc2cc(-c3ccc(Cl)cc3)ccc2C1NC(=O)O[C@@H]1CN2CCC1CC2` (stereo partly drawn) [Example 74, (S)-quinuclidin-3-yl (5-(4-chlorophenyl)-2,2-dimethyl-2,3-dihydro-1H-inden-1-yl)carbamate] are within 1.5-fold of each other in IC50: 15.8 nM for the first, 13 nM for the second.

`CC1(C)Cc2ccc(-c3cccc(F)c3F)cc2C1NC(=O)O[C@@H]1CN2CCC1CC2` (stereo partly drawn) [Example 64, (S)-quinuclidin-3-yl (6-(2,3-difluorophenyl)-2,2-dimethyl-2,3-dihydro-1H-inden-1-yl)carbamate] and `CC1(C)Cc2ccc(-c3ccc(F)c(F)c3)cc2C1NC(=O)O[C@@H]1CN2CCC1CC2` (stereo partly drawn) [Example 62, (S)-quinuclidin-3-yl (6-(3,4-difluorophenyl)-2,2-dimethyl-2,3-dihydro-1H-inden-1-yl)carbamate] are within 1.5-fold of each other in IC50: 74.7 nM for the first, 103 nM for the second.

Compared with `O=C(NC1CCc2cc(-c3ccc(OC(F)F)cc3)ccc21)O[C@@H]1CN2CCC1CC2` (stereo partly drawn) [Example 14, (S)-quinuclidin-3-yl (5-(4-(difluoromethoxy)phenyl)-2,3-dihydro-1H-inden-1-yl)carbamate], `O=C(NC1CCc2cc(-c3ccc(Cl)cc3)ccc21)O[C@@H]1CN2CCC1CC2` (stereo partly drawn) [Example 2, (S)-quinuclidin-3-yl (5-(4-chlorophenyl)-2,3-dihydro-1H-inden-1-yl)carbamate] is 3.7-fold higher in IC50: 54.3 nM for the first, 202 nM for the second.

`O=C(NC1CCc2cc(-c3ccccc3F)ccc21)O[C@@H]1CN2CCC1CC2` (stereo partly drawn) [Example 9, (S)-quinuclidin-3-yl (5-(2-fluorophenyl)-2,3-dihydro-1H-inden-1-yl)carbamate] and `O=C(NC1CCc2ccc(-c3cc(Cl)cc(Cl)c3)cc21)O[C@@H]1CN2CCC1CC2` (stereo partly drawn) [Example 48, (S)-quinuclidin-3-yl (6-(3,5-dichlorophenyl)-2,3-dihydro-1H-inden-1-yl)carbamate] are within 1.5-fold of each other in IC50: 93.1 nM for the first, 65.7 nM for the second.

Compared with `CC1(C)Cc2ccc(-c3ccccc3C(F)(F)F)cc2C1NC(=O)O[C@@H]1CN2CCC1CC2` (stereo partly drawn) [Example 59, (S)-quinuclidin-3-yl (2,2-dimethyl-6-(2-(trifluoromethyl)phenyl)-2,3-dihydro-1H-inden-1-yl)carbamate], `CC1(C)Cc2cc(-c3cncc4ccccc34)ccc2C1NC(=O)O[C@@H]1CN2CCC1CC2` (stereo partly drawn) [Example 142, (S)-quinuclidin-3-yl (5-(isoquinolin-4-yl)-2,2-dimethyl-2,3-dihydro-1H-inden-1-yl)carbamate] is 8-fold lower in IC50: 164 nM for the first, 20.5 nM for the second.

`CC1(C)Cc2cc(-c3ccc4c(c3)OCCCO4)ccc2C1NC(=O)O[C@@H]1CN2CCC1CC2` (stereo partly drawn) [Example 154, (S)-quinuclidin-3-yl (5-(3,4-dihydro-2H-benzo[b][1,4]dioxepin-7-yl)-2,2-dimethyl-2,3-dihydro-1H-inden-1-yl)carbamate] and `COCc1ccc(-c2ccc3c(c2)CC(C)(C)C3NC(=O)O[C@@H]2CN3CCC2CC3)cc1` (stereo partly drawn) [Example 149, (S)-quinuclidin-3-yl (5-(4-(methoxymethyl)phenyl)-2,2-dimethyl-2,3-dihydro-1H-inden-1-yl)carbamate] are within 1.5-fold of each other in IC50: 27.4 nM for the first, 27.6 nM for the second.

First: CCOc1ccc(-c2cc3c(cc2F)C(NC(=O)O[C@@H]2CN4CCC2CC4)C(C)(C)C3)cc1 (stereo partly drawn) [Example 356, (S)-quinuclidin-3-yl (5-(4-ethoxyphenyl)-6-fluoro-2,2-dimethyl-2,3-dihydro-1H-inden-1-yl)carbamate]
Second: CCCCOc1ccc(-c2cc3c(cc2F)C(NC(=O)O[C@@H]2CN4CCC2CC4)C(C)(C)C3)cc1 (stereo partly drawn) [Example 361, (S)-quinuclidin-3-yl (5-(4-butoxyphenyl)-6-fluoro-2,2-dimethyl-2,3-dihydro-1H-inden-1-yl)carbamate]
The IC50 of the first is 10-fold higher: 21.6 nM for the first, 2.1 nM for the second. The second is the more potent here.

`CCCOc1ccc(-c2ccc3c(c2)CC(C)(C)C3NC(=O)O[C@@H]2CN3CCC2CC3)cc1` (stereo partly drawn) [Example 135, (S)-quinuclidin-3-yl (2,2-dimethyl-5-(4-propoxyphenyl)-2,3-dihydro-1H-inden-1-yl)carbamate] and `CCCOc1ccc(-c2ccc3c(c2)CC(C)(C)C3NC(=O)O[C@@H]2CN3CCC2CC3)cn1` (stereo partly drawn) [Example 265, (S)-quinuclidin-3-yl (2,2-dimethyl-5-(6-propoxypyridin-3-yl)-2,3-dihydro-1H-inden-1-yl)carbamate] are within 1.5-fold of each other in IC50: 8.1 nM for the first, 6.7 nM for the second.

First: COCCOc1ccc(-c2ccc3c(c2)CC(C)(C)C3NC(=O)O[C@@H]2CN3CCC2CC3)cn1 (stereo partly drawn) [Example 267, (S)-quinuclidin-3-yl (5-(6-(2-methoxyethoxy)pyridin-3-yl)-2,2-dimethyl-2,3-dihydro-1H-inden-1-yl)carbamate]
Second: CCCOc1cc(F)ccc1-c1ccc2c(c1)CC(C)(C)C2NC(=O)O[C@@H]1CN2CCC1CC2 (stereo partly drawn) [Example 239, (S)-quinuclidin-3-yl (5-(4-fluoro-2-propoxyphenyl)-2,2-dimethyl-2,3-dihydro-1H-inden-1-yl)carbamate]
The IC50 of the first is 1.7-fold higher: 83.1 nM for the first, 48.9 nM for the second.

First: CCCCOc1cccc(-c2cc3c(cc2F)C(NC(=O)O[C@@H]2CN4CCC2CC4)C(C)(C)C3)c1 (stereo partly drawn) [Example 379, (S)-quinuclidin-3-yl (5-(3-butoxyphenyl)-6-fluoro-2,2-dimethyl-2,3-dihydro-1H-inden-1-yl)carbamate]
Second: COc1cc2c(cc1-c1cccc(OC(C)C)c1)CC(C)(C)C2NC(=O)O[C@@H]1CN2CCC1CC2 (stereo partly drawn) [Example 341, (S)-quinuclidin-3-yl (5-(3-isopropoxyphenyl)-6-methoxy-2,2-dimethyl-2,3-dihydro-1H-inden-1-yl)carbamate]
The IC50 of the first is 3.9-fold lower: 15.8 nM for the first, 61.9 nM for the second.

First: O=C(NC1c2ccc(-c3ccc(Cl)cc3)cc2CC12CC2)O[C@@H]1CN2CCC1CC2 (stereo partly drawn) [Example 390, (S)-quinuclidin-3-yl (5′-(4-chlorophenyl)-1′,3′-dihydrospiro[cyclopropane-1,2′-inden]-1′-yl)carbamate]
Second: CC1(C)Cc2ccc(-c3cc(Cl)cc(Cl)c3)cc2C1NC(=O)O[C@@H]1CN2CCC1CC2 (stereo partly drawn) [Example 69, (S)-quinuclidin-3-yl (6-(3,5-dichlorophenyl)-2,2-dimethyl-2,3-dihydro-1H-inden-1-yl)carbamate]
The IC50 of the first is 9.1-fold lower: 44.1 nM for the first, 400 nM for the second. The first is the more potent here.

same assay, conditions: read-out: IC50

For “(S)-quinuclidin-3-yl (6-(3-(2-methoxyethoxy)phenyl)-2,2-dimethyl-2,3-dihydrobenzofuran-3-yl)carbamate [Example 411]”, the IC50 was 79.3 nM.
